The series has as its system human Factor 7 mRNA. The experiment in a line: Inhibition of human Factor 7 mRNA by 2-10-2 MOE shortmers in HepB3 cells, electroporation, 1,000 nM. In kind it is cell-based. As to conditions: electroporation, 1,000 nM oligonucleotide, approximately 24 hours, relative to untreated control cells. The essentials:
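14-mer 2-10-2 2′-MOE gapmers, full phosphorothioate, 5-methylcytidines, electroporated at 1,000 nM into HepB3 cells (20,000/well). After ~24 h, mRNA quantified by real-time RT-PCR, normalized to RIBOGREEN total RNA; percent inhibition relative to untreated cells.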

In the oligonucleotide strings, read from the 5' end, every base follows the letter of its sugar. An asterisk marks phosphorothioate; unmarked linkages are phosphodiester. Other units and linkages are bracketed, terminal groups are in braces. A string of capitals states the bases alone. e = 2'-O-(2-methoxyethyl) (MOE); [5mC] = 5-methylcytosine; d = 2'-deoxy (DNA)

We go through 51 substances from patent US20120214862A1, “MODULATION OF FACTOR 7 EXPRESSION” (ISIS Pharmaceuticals, Inc., priority 2009, published 2012).

With “435766 (antisense eG*e[5mC]*dA*d[5mC]*d[5mC]*dT*dG*d[5mC]*dA*dG*d[5mC]*d[5mC]*eA*eG) [compound 435766]”, the “% inhibition of human Factor 7 mRNA” value was found to be 51%.

For “435749 (antisense e[5mC]*eA*dG*d[5mC]*d[5mC]*dA*dG*dG*dG*d[5mC]*d[5mC]*dT*eG*eG) [compound 435749]”, the “% inhibition of human Factor 7 mRNA” value turned out to be 29%. “435744 (antisense e[5mC]*eT*dA*d[5mC]*dA*dG*d[5mC]*d[5mC]*dT*d[5mC]*dA*dA*eA*e[5mC]) [compound 435744]”: the “% inhibition of human Factor 7 mRNA” value came out at 19%. The figure for “435664 (antisense eT*eT*dT*dT*dT*d[5mC]*d[5mC]*dA*d[5mC]*dA*dT*dG*eG*eA) [compound 435664]” is 4%; for “435780 (antisense eG*eG*dA*dG*dG*dG*dA*d[5mC]*dG*dA*d[5mC]*d[5mC]*eT*eT) [compound 435780]” it is 28%; for “435637 (antisense eT*eG*dA*dA*dG*d[5mC]*d[5mC]*d[5mC]*dA*dA*dG*d[5mC]*eA*eG) [compound 435637]” it is 11%. To “435790 (antisense eA*eT*dG*dA*d[5mC]*d[5mC]*dA*dT*d[5mC]*d[5mC]*dT*d[5mC]*eA*eA) [compound 435790]” belongs 1%.

Consider “435648 (antisense eG*eA*dA*dG*d[5mC]*dA*dG*dA*dT*dA*dT*dA*eG*eG) [compound 435648]”, for which the “% inhibition of human Factor 7 mRNA” value worked out at 0%. To “435694 (antisense e[5mC]*eT*dG*d[5mC]*dA*dG*dG*d[5mC]*dA*dG*dT*d[5mC]*e[5mC]*eT) [compound 435694]” belongs 39%. The figure for “435795 (antisense eA*e[5mC]*dA*d[5mC]*d[5mC]*d[5mC]*dG*dA*dG*dG*dT*dT*e[5mC]*eA) [compound 435795]” is 66%; for “435764 (antisense eT*eG*dA*dG*dA*dG*d[5mC]*dT*dG*d[5mC]*dA*d[5mC]*e[5mC]*eT) [compound 435764]” it is 8%; for “435652 (antisense e[5mC]*eT*dG*dG*dT*d[5mC]*dA*dT*d[5mC]*d[5mC]*dT*dT*eG*eT) [compound 435652]” it is 48%. Turning to “435639 (antisense eT*e[5mC]*d[5mC]*dA*dG*dA*dA*d[5mC]*dA*dG*d[5mC]*dT*eT*e[5mC]) [compound 435639]”, the “% inhibition of human Factor 7 mRNA” value is 31%. To “435831 (antisense eG*eA*dT*d[5mC]*dT*dT*d[5mC]*dA*d[5mC]*dA*dT*dA*eG*e[5mC]) [compound 435831]” belongs 51%; to “435830 (antisense eT*eG*dA*dT*dT*dT*dT*dG*d[5mC]*dA*dA*dA*eG*eA) [compound 435830]”, 0%; to “435682 (antisense eG*eG*dA*dT*dG*dA*dT*dG*dA*d[5mC]*d[5mC]*dT*eG*e[5mC]) [compound 435682]”, 36%.

For the substance “435500 (antisense eA*e[5mC]*dT*dG*dG*dG*dA*dG*dA*d[5mC]*d[5mC]*d[5mC]*eT*eG) [compound 435500]”, the “% inhibition of human Factor 7 mRNA” value is reported as 49%. As for “435776 (antisense eG*eG*dG*dA*d[5mC]*dA*d[5mC]*dT*d[5mC]*dA*d[5mC]*dA*e[5mC]*eT) [compound 435776]”, the “% inhibition of human Factor 7 mRNA” value is listed as 51%. The figure for “435736 (antisense eA*eT*dG*d[5mC]*dA*dT*dG*dG*dT*dG*dA*dT*eG*e[5mC]) [compound 435736]” is 50%; for “435784 (antisense e[5mC]*e[5mC]*dT*dA*dA*dG*dT*dG*dT*dG*d[5mC]*dT*eT*eT) [compound 435784]” it is 17%; for “435688 (antisense eA*e[5mC]*d[5mC]*dA*d[5mC]*dA*dT*dG*dG*dT*d[5mC]*dA*eG*eT) [compound 435688]” it is 0%. The figure for “435755 (antisense eG*eG*dG*dA*d[5mC]*dT*d[5mC]*dA*dG*d[5mC]*dA*dA*eG*eA) [compound 435755]” is 0%; for “435818 (antisense eG*eT*d[5mC]*dA*dT*d[5mC]*d[5mC]*dT*dT*dG*dT*d[5mC]*eT*eG) [compound 435818]” it is 43%; for “435740 (antisense eT*e[5mC]*dA*dT*dT*dT*d[5mC]*dA*dG*dT*dG*dA*eT*eG) [compound 435740]” it is 0%. As to “435801 (antisense e[5mC]*eG*dG*dT*dT*dG*dG*d[5mC]*d[5mC]*dA*dG*dG*e[5mC]*e[5mC]) [compound 435801]”, the “% inhibition of human Factor 7 mRNA” value stood at 38%.

Consider “435650 (antisense e[5mC]*e[5mC]*dG*dG*d[5mC]*d[5mC]*d[5mC]*dT*d[5mC]*dG*dA*dA*eG*eG) [compound 435650]”, for which the “% inhibition of human Factor 7 mRNA” value came to 6%. The figure for “435479 (antisense e[5mC]*eA*d[5mC]*dT*d[5mC]*d[5mC]*d[5mC]*d[5mC]*dT*dT*dT*dG*eG*eG) [compound 435479]” is 9%; for “435649 (antisense eA*eG*dG*d[5mC]*dA*dG*dA*dA*dG*d[5mC]*dA*dG*eA*eT) [compound 435649]” it is 21%; for “435676 (antisense eG*eA*dT*dT*dT*dT*dG*dT*d[5mC]*dG*dA*dA*eA*e[5mC]) [compound 435676]” it is 11%. As for “435643 (antisense e[5mC]*eT*dT*dG*d[5mC]*dA*dG*dG*dA*dG*d[5mC]*d[5mC]*e[5mC]*e[5mC]) [compound 435643]”, the “% inhibition of human Factor 7 mRNA” value is listed as 51%. To “435731 (antisense eG*eT*dG*dA*dG*dA*dG*d[5mC]*dT*dA*dA*dA*e[5mC]*eA) [compound 435731]” belongs 11%.

As for “435835 (antisense eT*eT*dA*dT*dT*dT*dG*dG*dG*d[5mC]*dA*dT*eG*eG) [compound 435835]”, the “% inhibition of human Factor 7 mRNA” value was 7%.

Regarding “435487 (antisense eA*eG*dT*d[5mC]*d[5mC]*dT*dG*dG*dG*dT*d[5mC]*dA*eT*e[5mC]) [compound 435487]”, the “% inhibition of human Factor 7 mRNA” value amounted to 36%.

For the substance “435745 (antisense eG*eG*dG*dA*dG*d[5mC]*dT*dA*d[5mC]*dA*dG*d[5mC]*e[5mC]*eT) [compound 435745]”, the “% inhibition of human Factor 7 mRNA” value is reported as 0%.

Turning to “435677 (antisense eG*eT*dG*d[5mC]*dT*d[5mC]*dG*d[5mC]*d[5mC]*d[5mC]*dA*dG*e[5mC]*eA) [compound 435677]”, the “% inhibition of human Factor 7 mRNA” value is listed as 60%. In the case of “435737 (antisense eG*eT*dG*d[5mC]*dA*dG*d[5mC]*d[5mC]*d[5mC]*dG*dG*d[5mC]*eA*e[5mC]) [compound 435737]”, the “% inhibition of human Factor 7 mRNA” value is listed as 70%. Consider “435730 (antisense eT*eA*dA*dA*d[5mC]*dA*dA*d[5mC]*d[5mC]*dG*d[5mC]*d[5mC]*eT*eT) [compound 435730]”, for which the “% inhibition of human Factor 7 mRNA” value stood at 49%. “435657 (antisense eG*e[5mC]*dA*dG*dT*dA*d[5mC]*dT*dG*d[5mC]*dT*d[5mC]*eA*e[5mC]) [compound 435657]”: the “% inhibition of human Factor 7 mRNA” value was 69%. “435781 (antisense eA*e[5mC]*d[5mC]*dA*d[5mC]*dG*d[5mC]*dG*dG*dT*dG*dG*eT*eG) [compound 435781]”: the “% inhibition of human Factor 7 mRNA” value is recorded as 0%.

For the substance “435775 (antisense eT*e[5mC]*dT*dG*dG*dA*dA*dG*dG*dA*dA*d[5mC]*eA*eG) [compound 435775]”, the “% inhibition of human Factor 7 mRNA” value is on record as 25%. To “435692 (antisense e[5mC]*eG*dG*dT*d[5mC]*d[5mC]*dA*dG*d[5mC]*dA*dG*d[5mC]*eT*eG) [compound 435692]” belongs 32%. On to “435800 (antisense eG*eG*dA*d[5mC]*d[5mC]*d[5mC]*dA*dA*dA*dG*dT*dG*eG*eG) [compound 435800]”, for which the “% inhibition of human Factor 7 mRNA” value was determined as 0%. To “435715 (antisense e[5mC]*eA*dG*d[5mC]*d[5mC]*dA*d[5mC]*dT*d[5mC]*dG*dA*dT*eG*eT) [compound 435715]” belongs 35%; to “435808 (antisense e[5mC]*eT*d[5mC]*dT*dG*dG*dA*d[5mC]*dA*d[5mC]*d[5mC]*dG*eG*eG) [compound 435808]”, 66%. To “435794 (antisense eG*eA*dG*dG*dT*dA*d[5mC]*dA*d[5mC]*dA*dG*dG*e[5mC]*eT) [compound 435794]” belongs 26%; to “435848 (antisense eT*eG*dG*d[5mC]*d[5mC]*dA*d[5mC]*dT*dG*d[5mC]*d[5mC]*dT*e[5mC]*eA) [compound 435848]”, 32%.

Turning to “435689 (antisense eT*eT*d[5mC]*dG*dG*dG*d[5mC]*dA*dG*dG*d[5mC]*dA*eG*eA) [compound 435689]”, the “% inhibition of human Factor 7 mRNA” value is listed as 23%. As to “435797 (antisense eA*eA*dT*d[5mC]*dT*dT*dG*dG*d[5mC]*d[5mC]*d[5mC]*d[5mC]*eT*e[5mC]) [compound 435797]”, the “% inhibition of human Factor 7 mRNA” value is reported as 16%.

On to “435644 (antisense eT*eG*dG*dT*d[5mC]*d[5mC]*dT*dT*dG*d[5mC]*dA*dG*eG*eA) [compound 435644]”, for which the “% inhibition of human Factor 7 mRNA” value came to 30%. The figure for “435683 (antisense eA*eT*dG*dT*d[5mC]*dG*dT*dG*dG*dT*dT*dG*eG*eT) [compound 435683]” is 3%; for “435654 (antisense eG*e[5mC]*d[5mC]*dG*dT*dT*d[5mC]*dT*d[5mC]*dG*dT*dT*e[5mC]*eA) [compound 435654]” it is 71%.
